Assay results reported in patent publication US10238677B2, “Treatment of filarial diseases” (AbbVie Inc., priority 2015, dated 2019).
“And” between values parts separate entries of the source, which are not always exact repeats. Equal values may be shown once. Values belong to the compound of their own block, whether it stands above or below them.

Tests used:
[1] = test system: Wolbachia pipientis (Wolbachia strain wAlbB) in C6/36 Aedes albopictus cell line; assay: In vitro anti-Wolbachia cell-based screening assay; conditions: Table 1A, anti-Wolbachia activity, 7 days incubation
Method: A C6/36 Aedes albopictus cell line infected with Wolbachia pipientis (Wolbachia strain wAlbB) derived from Aa23 A. albopictus cell line (O'Neill et al., 1997; Insect Mol Biol; Turner et al., (2006) J. Immunol. 7:1240-1249) was used to screen compounds. Cells were cultured in Leibovitz's L15 +L-glutamine supplemented with heat-inactivated Foetal Calf Serum (HI-FCS), non-essential amino acids and tryptose phosphate broth. Culture medium was filter-sterilized through a 0.2 μm filter and stored at 4° C. Compounds were provided as 10 mM stocks in DMSO, diluted to 50 μM working stock to give final concentration of 5 μM on the test plate. Concentrated stocks were frozen at −20° C.
Prior to use in the screening assay, cell cultures were sub-passaged (6 days prior) to provide ˜90% confluent cells on Day 0 of screening assay. On Day 0 (assay set-up), the medium was removed from the stock culture flask and replaced with fresh medium. The cells were detached by scraping and cell density was calculated using an automated cell counter. The cells were then diluted at working density and aliquoted at 90 μl to each well of a Cell Carrier 384 well plate (Perkin Elmer). Cell plates were incubated at 26° C.
Control solution (DMSO-medium) was dispensed at 10 μl per well for “untreated” wells. Test solution (Drug-DMSO) was also dispensed at 10 μl (from working plate) per well for “treated” wells. The plates were incubated at 26° C., inside plastic wallet in incubator, for 7 days.
On Day 7, 25 μl of staining medium/dye (SYTO 11, Life Technologies) was added to each sample well and allowed to stain for 15 minutes in the dark. All the medium was removed from each sample well without disturbing the cells and replaced with 100 μl of fresh medium. Plates were imaged on the Operetta High Content Imaging system (Perkin Elmer) and analyzed using texture analysis through Harmony software (Perkin Elmer). The cell-based screen and analysis are described in detail in Clare et al. (2014) J Biomol Screen.

[2] = test system: Wolbachia in Litomosoides sigmodontis larvae; assay: Larval Litomosoides sigmodontis mouse model, Wolbachia ftsZ qPCR; assay type: in vivo, BALB/c mice; conditions: vs vehicle control
Method: In this mouse model of filariasis (Hoerauf A, et al. (1999) Journal of Clinical Investigation 103(1):11-18), BALB/c mice (6-8 week old) were infected via natural larvae transmission, through the bite of infected tropical mites (Ornithonyssus bacoti), and treatment started on the day following infection. Anti-Wolbachia efficacy was measured by quantitative PCR analysis, using genomic DNA extracted from larvae, of the Wolbachia ftsZ gene, and expressed as a reduction in Wolbachia load in comparison to the vehicle control group. […] Thus, tylosin A effectively cleared Wolbachia from filarial larvae (Litomosoides sigmodontis) in a mouse model of filariasis when delivered parenterally (intraperitoneally), to a similar extent to doxycycline, with a shorter dosing regimen.

[3] = test system: Wolbachia in Brugia malayi larvae; assay: Larval Brugia malayi mouse model, Wolbachia wsp qPCR; assay type: in vivo, BALB/c IL4Rα−/− mice; conditions: vs median vehicle control
Source text: […] At 14 days post-infection, larvae were recovered from the peritoneal cavity, counted, and length measured. Genomic DNA was extracted from individual worms (10/group) and quantification of the Wolbachia surface protein (wBm-wsp) gene copy numbers performed by quantitative PCR.
Treatment dose (mg/kg) shown in parentheses and duration stated in days (d). Abbreviations: DOX (doxycycline), bid (twice daily), qd (once daily), PO (oral), […]. Data in Table 2 are expressed as a reduction in Wolbachia load in comparison to the vehicle control group.
[…] […] Treatment dose (mg/kg) shown in parentheses and duration stated in days (d). Abbreviations: DOX (doxycycline), qd (once daily).

[4] = test system: Wolbachia in adult Brugia malayi; assay: Adult Brugia malayi mouse model, Wolbachia wsp qPCR; assay type: in vivo, BALB/c CCR3−/− mice
Source text: In an adult Brugia malayi mouse model treatment groups (BALB/c CCR3−/−mice, 6-8 week old) received compounds by oral delivery for 7-28 days beginning at 6-10 weeks post-infection intraperitoneal with Brugia malayi third-stage larvae. Following treatment, at 12 weeks post-infection, adult worms and released microfilariae were recovered from the peritoneal cavity, counted and staged for sex. Genomic DNA was extracted from individual adult worms (10/group) and quantification of the Wolbachia surface protein (wBm-wsp) performed by quantitative PCR.
Treatment dose (mg/kg/day) shown in parentheses and duration stated in days (d). MIN (minocycline), bid (twice daily), qd (once daily). Data in Table 4 are expressed as a reduction in Wolbachia load in comparison to the vehicle control group.
Treatment dose (mg/kg/day) shown in parentheses and duration stated in days (d). MIN (minocycline), bid (twice daily), qd (once daily).

[5] = test system: Wolbachia in adult Brugia malayi; assay: Adult Brugia malayi jird model, Wolbachia load; assay type: in vivo, Mongolian jirds (Meriones unguiculatus); conditions: Table 6; 200 mg/kg qd oral 21 d; vs median vehicle control
Method: (§1) In this model of adult filarial (macrofilariae) infection, Mongolian jirds (Meriones unguiculatus) were infected intraperitoneally with Brugia malayi third-stage larvae (Ash and Riley, (1970) J Parasitol. 56(5):969-73). Infected jirds were treated at +12-20 weeks post-infection for periods up to 6 weeks. Jirds were necropsied for worm recoveries. Adult worms were staged for sex and motile released microfilariae were counted. Genomic DNA was extracted from individual worms (10/group) and quantification of the Wolbachia surface protein (wBm-wsp) and Brugia malayi glutathione S-transferase (Bm-gst) gene copy numbers performed by quantitative PCR, and expressed as a reduction in Wolbachia load in comparison to the vehicle control group.
(§2) Treatment dose (mg/kg/day) shown in parentheses and duration stated in days (d). DOX (doxycycline), qd (once daily).

[6] = test system: Brugia malayi microfilariae; assay: Adult Brugia malayi jird model, motile peritoneal microfilariae load; assay type: in vivo, Mongolian jirds (Meriones unguiculatus); conditions: Table 7, 200 mg/kg qd oral 21 d
Method: as §1, §2

[7] = test system: Wolbachia in adult male Onchocerca ochengi; assay: Adult Onchocerca ochengi mouse model, Wolbachia:gst qPCR; assay type: in vivo, CB.17 SCID (BALB/c congenic) mice; conditions: Table 8; 25 mg/kg bid oral 28 d; vs median vehicle control
Method: In this model, adult male Onchocerca ochengi (closest relative species to the human parasite causing river blindness, Onchocerca volvulus) are derived from cattle natural hosts and surgically implanted into the peritoneal cavity of CB.17 SCID (BALB/c congenic) mice under anaesthesia (Halliday et al Parasit. Vectors 2014 7:472). After 3 days following surgery, mice were treated by oral gavage for periods up to 4 weeks. Mice were necropsied for worm recoveries 6 weeks after start of treatment. Genomic DNA was extracted from individual worms (n=10/group) and quantification of the Wolbachia surface protein (wBm-wsp) and Onchocerca glutathione S-transferase (Ov-gst) gene copy numbers performed by quantitative PCR. Data is expressed as a reduction in Wolbachia:gst ratios in comparison to the vehicle control group.
Treatment dose (mg/kg/day) shown in parentheses and duration stated in days (d). DOX (doxycycline), qd (once daily) bid (twice daily).

Loa loa microfilariae = Loa loa microfilariae ex vivo counter-screen; assay type: cell-based; conditions: for Motility (mean % vs baseline) / Survival (%): 64 μg/ml
Source text: This ex vivo assay is used to assess direct Loa loa microfilaricidal effects of drug compounds. Bloodborne Loa loa microfilariae are generated from experimental infections of splenectomised baboons with the human stain of L. loa (Orihel et al, Trop Med Parasitol, 1985. 36: p.215). L. loa microfilariae were purified from venous blood samples by Percoll gradient centrifugation. Loa loa microfilariae were adjusted to a density of 0.5×10^4/ml and plated into 96-well plates in Dulbecco's Modified Eagle Medium (DMEM) containing 10% Foetal Calf Serum (FCS). Triplicate wells of Loa loa microfilariae were exposed to either ivermectin (64 μg/ml: positive control), compound 10 (0.018 and 0.18 μg/ml), compound 19 (0.11 and 1.11 μg/ml) or 0.1% DMSO vehicle control. Dose levels of compound 10 and compound 19 were matched to predictive Cmax and 10× Cmax human plasma concentrations based on PK-PD modeling. L. loa were cultured at 37° C./5% CO2 for +7 days and monitored daily with a semi-quantitative score applied to individual mf motility.

[8] = Table 2, 50 mg/kg qd PO 14 d, 50 mg/kg

EC50 ([1]; C6/36, 168 h): 36 nM
EC50 [1]: 24 nM and 26 nM
Compound: CC[C@H]1OC(=O)C[C@@H](O)[C@H](C)[C@@H](O[C@@H]2O[C@H](C)[C@@H](O[C@H]3C[C@@](C)(O)[C@@H](O)[C@H](C)O3)[C@H](N(C)C)[C@H]2O)[C@@H](CC=O)C[C@@H](C)C(=O)/C=C/C(C)=C/[C@@H]1CO[C@@H]1O[C@H](C)[C@@H](O)[C@@H](OC)[C@H]1OC [Tylosin A, 2-((4R,5S,6S,7R,9R,11E,13E,15R,16R)-6-(((2R,3R,4R,5S,6R)-5-(((2S,4R,5S,6S)-4,5-dihydroxy-4,6-dimethyltetrahydro-2H-pyran-2-yl)oxy)-4-(dimethylamino)-3-hydroxy-6-methyltetrahydro-2H-pyran-2-yl)oxy)-16-ethyl-4-hydroxy-15-((((2R,3R,4R,5R,6R)-5-hydroxy-3,4-dimethoxy-6-methyltetrahydro-2H-pyran-2-yl)oxy)methyl)-5,9,13-trimethyl-2,10-dioxooxacyclohexadeca-11,13-dien-7-yl)acetaldehyde]
Wolbachia reduction ([2]; 7 days treatment, oral dosing): 21.9%
Wolbachia reduction ([2]; 7 days treatment, parenteral (intraperitoneal) dosing): 91.7%
% Wolbachia reduction ([3]; Table 2, 50 mg/kg qd IP 14 d, 50 mg/kg): 99.9%
% Wolbachia reduction ([3]; Table 2, 50 mg/kg qd IP 14 d, listed as TYL A, 50 mg/kg): 99.9%
% Wolbachia reduction [3, 8]: 50.4%
% Wolbachia reduction ([3]; Table 2, 50 mg/kg qd PO 14 d, listed as TYL A, 50 mg/kg): 50.4%
% Wolbachia reduction ([4]; Table 4, 50 mg/kg qd oral 14 d, vs median vehicle control): 0%

Compound: C[C@H]1c2cccc(O)c2C(=O)C2=C(O)[C@]3(O)C(=O)C(C(N)=O)=C(O)[C@@H](N(C)C)[C@@H]3[C@@H](O)[C@@H]21 [doxycycline]
Wolbachia reduction ([2]; 50 mg/kg/day for 14 days): 99.9%
% Wolbachia reduction ([3]; Table 2, 50 mg/kg qd PO 7 d): 88.7%
% Wolbachia reduction [3, 8]: 98.3%
% Wolbachia reduction ([3]; Table 2, 50 mg/kg qd PO 14 d, listed as DOX, 50 mg/kg): 98.3%
% Wolbachia reduction ([3]; Table 3, 50 mg/kg qd oral 7 d, 50 mg/kg): 77.4%
% Wolbachia reduction ([3]; Table 3, 50 mg/kg qd oral 7 d, listed as DOX, 50 mg/kg): 77.4%
% Wolbachia reduction ([3]; Table 3, 50 mg/kg qd oral 14 d, 50 mg/kg): 99.3%
% Wolbachia reduction ([3]; Table 3, 50 mg/kg qd oral 14 d, listed as DOX, 50 mg/kg): 99.3%
% Wolbachia reduction [5]: 99.1%
% reduction in microfilariae [6]: 90.5%
% Wolbachia reduction [7]: 99.8%

EC50 [1]: 88 nM
Compound: CC[C@H]1OC(=O)C[C@@H](O)[C@H](C)[C@@H](O[C@@H]2O[C@H](C)[C@@H](O)[C@H](N(C)C)[C@H]2O)[C@@H](CC=O)C[C@@H](C)C(=O)/C=C/C(C)=C/[C@@H]1CO[C@@H]1O[C@H](C)[C@@H](O)[C@@H](OC)[C@H]1OC [Tylosin B, desmycosin]

Compound: ivermectin
Motility (mean % vs baseline) (Loa loa microfilariae; exposure time 2 days): 5.71%
Survival (%) (Loa loa microfilariae; exposure time 2 days): 100%
Motility (mean % vs baseline) (Loa loa microfilariae; exposure time 7 days): 0%
Survival (%) (Loa loa microfilariae; exposure time 7 days): 0%
Effect on Loa loa microfilariae motility (in words) (Loa loa microfilariae; ex vivo culture, period of 7 days): completely immotile
Reduction in motility (Loa loa microfilariae; in +2 days): > 90%

Compound: CN(C)c1ccc(O)c2c1C[C@H]1C[C@H]3[C@H](N(C)C)C(O)=C(C(N)=O)C(=O)[C@@]3(O)C(O)=C1C2=O [minocycline]
% Wolbachia reduction ([4]; Table 4, 25 mg/kg bid oral 28 d, vs median vehicle control, 25 mg/kg): 83.8%
% Wolbachia reduction ([4]; Table 4, 25 mg/kg bid oral 28 d, vs median vehicle control, listed as MIN, 25 mg/kg): 83.8%
% Wolbachia reduction ([4]; Table 5 dose escalation study, 25 mg/kg bid oral 28 d): 95.5%
% Wolbachia reduction [7]: 99.7%
